# Measurements taken from patent US4358444A, “2,4-Dioxacyclohexanone derivative” (Dr. L. Zambeletti S.p.A., priority 1981, dated 1982).
# Like-named read-outs stand apart in the source and are kept apart here.
# Columns and labels:
# [1] = test system: gastric mucosa; experiment: Gastrolesive activity after oral administration; type: in vivo, rats; conditions: for gastric tolerability / gastrolesive effect (in words): oral
# Description: MR 693 and acetylsalycilic acid as the comparison substance were administered by oral route to rats fastened from at least 18 hours.
# After six hours from the beginning of the experiment, the rats were sacrificed and the stomachs were opened and examined in order to verify the presence of lesions on the gastric mucosa.
# [2] = test system: carrageenin induced edema; experiment: Carrageenin induced edema test (antinflammatory activity); type: in vivo, rats; conditions: for reduction of the edema / antiinflammatory action compared with acetylsalicylic acid (in words): oral, equimolecular dosages
# Text: The antinflammatory properties of MR 693 have been investigated by means of the carrageenin induced edema test in rats, by administering the compound of the invention by oral route and using acetylsalycilic acid as the comparison substance, at equimolecular dosages.
# [3] = test system: yeast induced hypertermia; experiment: Yeast induced hypertermia test (antipyretic activity); type: in vivo, rat
# Text: This activity has been investigated by means of the yeast induced hypertermia test in the rat, taking again acetylsalycilic acid, administered at equimolecular dosages, as the comparison substance.
# [4] = type: in vivo; conditions: for distribution / route of excretion/elimination: metabolite
# [5] = test system: citric acid aerosol induced cough; experiment: Citric acid aerosol induced cough test (antitussive activity); conditions: for antitussive activity compared with codeine (in words): 500 mg/kg oral vs codeine 25 mg/kg oral, general statement in b2
# [6] = Acute toxicity in mice; conditions: in vivo, po; mouse, os; read-out: DL50 (the source's name)
# Text: (§1) Acute toxicity tests have been carried out in mice rats, by administering the compound of the invention by oral and intraperitoneal route.
# [7] = Acute toxicity in rats; conditions: in vivo, rat, read-out: DL50 (the source's name)
# Text: as §1
# [8] = test system: rats; experiment: Subacute toxicity in rats, oral, four weeks; type: in vivo; conditions: four consecutive weeks
# Text: (§2) Subacute toxicity studies have been carried out on rats and dogs, by administering MR 693 by oral route for four consecutive weeks.
# (§3) The parameters which have been taken into consideration are as follows:
# (§4) glycosuria, proteinuria, albuminuria and haematuria
# (§5) weight of the principal organs
# [9] = test system: dogs; experiment: Subacute toxicity in dogs, oral, four weeks; type: in vivo; conditions: four consecutive weeks
# Text: as §2, §3, §4, §5
# [10] = test system: rats; experiment: Chronic toxicity in rats, oral, 24 weeks; type: in vivo
# Text: (§6) Chronic toxicity studies have been carried out on rats, administered by oral route with MR 693 for 24 consecutive weeks, and dogs, administered by oral and rectal route with the compound of the invention again for 24 weeks.
# as §3
# (§7) biochemical examination of the blood glycosuria, proteinuria, haematuria, albuminuria
# (§8) weight and hystological control of the principal organs;
# [11] = test system: dogs; experiment: Chronic toxicity in dogs, oral and rectal, 24 weeks; type: in vivo
# Text: as §6, §3, §7, §8
# [12] = test system: rats; experiment: Theratogenesis studies in rats; type: in vivo; conditions: oral, all along the pregnancy
# Text: (§9) Theratogenesis studies have been carried out on rats and rabbits, which have been treated by oral route with MR 693 all along the duration of the pregnancy. […]
# (§10) number of pregnant females […]
# (§11) initial body weight/end body weight (of the mothers) […]
# (§12) average number of lived foetuses total number of dead foetuses total number of re-absorptions average weight of lived foetuses
# [13] = test system: rabbits; experiment: Theratogenesis studies in rabbits; type: in vivo; conditions: oral, all along the pregnancy
# Text: as §9, §10, §11, §12
# [14] = test system: esterase; experiment: In vitro metabolism (enzymatic hydrolysis); type: in vitro ADME
# Text: Studies have been performed both in vitro and in vivo.
# [15] = Toxicity, overall statement (acute, subacute and chronic); type: in vivo
# Text: as §1, §2, §6
# [16] = 250 mg/kg os (equimolecular dosage)
# [17] = listed as 3-(2-methoxy-phenoxy)-3-methyl-benzo-2,4-dioxacyclohexanone
# [18] = 400 mg/kg os (equimolecular dosage)
structure (smiles),measurement,setting,value
"CC(=O)Oc1ccccc1C(=O)O [Acetylsalycilic acid, acetylsalicylic acid, reference compound]",Average diameter of the lesions,"[1]; 250 mg/kg os, six hours (equimolecular dosage)",3.7 ± 0.8 mm
same,% Inhibition of the edema,[2]; [16],33%
same,% Inhibition (yeast induced hypertermia),[3]; [16],103%
same,concentration observed in the lungs compared with plasma and liver,[4]; in vivo,higher than those observed in the plasma and the liver
same,distribution,[4]; after administration of MR 693,enter the systemic circulation
"COc1ccc2c3c1O[C@H]1[C@@H](O)C=C[C@H]4[C@@H](C2)N(C)CC[C@@]341 [Codeine, codeine, reference compound]",% Inhibition of cough-strokes,[5]; 12.5 mg/kg i.p.,93.7%
same,% Inhibition of cough-strokes,[5]; 25 mg/kg os,76.7%
same,inhibition at 12.5 mg/kg,"[5]; Cavia porcellus, ip, read-out: % Inhibition of cough-strokes, 12.5 mg/kg i.p.",93%
"COc1ccccc1OC1(C)OC(=O)c2ccccc2O1 (stereo not drawn) [MR 693, 3-(2-methoxy-phenoxy)-3-methyl-benzo-2,4-dioxacyclohexanone]",Average diameter of the lesions,"[1]; 100 mg/kg os, six hours",0 mm
same,Average diameter of the lesions,"[1]; 400 mg/kg os, six hours (equimolecular dosage)",0 mm
same,gastric tolerability / gastrolesive effect (in words),[1],perfectly tolerated at gastric level
same,gastric tolerability / gastrolesive effect (in words),[1]; [17],complete absence of any gastrolesive effect
same,% Inhibition of the edema,[2]; [18],30%
same,reduction of the edema / antiinflammatory action compared with acetylsalicylic acid (in words),[2],marked reduction of the edema
same,reduction of the edema / antiinflammatory action compared with acetylsalicylic acid (in words),[2]; [17],practically is the same as that possessed by acetylsalicylic acid
same,% Inhibition (yeast induced hypertermia),[3]; [18],86%
same,antipyretic activity compared with acetylsalicylic acid (in words),"[3]; oral, equimolecular dosages, listed as 3-(2-methoxy-phenoxy)-3-methyl-benzo-2,4-dioxacyclohexanone","only slightly lower than that displayed, again, by acetylsalicylic acid"
same,LD50,[6],> 3000 mg/kg
same,LD50,"[7]; ip, i.p.",1750 mg/kg
same,LD50,"[7]; po, os",> 3000 mg/kg
same,alterations or malformations (subacute toxicity),[8],in no case alterations or malformations ascribable to the treatment
same,alterations or malformations (subacute toxicity),[9],in no case alterations or malformations ascribable to the treatment
same,alterations or anatomo-pathological states (chronic toxicity),[10]; 24 consecutive weeks,no alterations or particularly significant anatomo-pathological states
same,alteration of the mucosae of the gastro-intestinal tract,[10]; 24 weeks,did not show any alteration of the mucosae
same,alteration of the mucosae of the gastro-intestinal tract,[11],did not show any alteration of the mucosae
same,alterations or anatomo-pathological states (chronic toxicity),[11],no alterations or particularly significant anatomo-pathological states
same,theratogenesis: alterations,[12],no alteration
same,theratogenesis: number of litters alive,[12],no variation of the number of litters alive
same,theratogenesis: somatic or skeletal malformations,[12],neither somatic not skeletal malformations have been observed
same,theratogenesis: alterations,[13],no alteration
same,theratogenesis: number of litters alive,[13],no variation of the number of litters alive
same,theratogenesis: somatic or skeletal malformations,[13],neither somatic not skeletal malformations have been observed
same,enzymatic hydrolysis (metabolites),[14],enzymatically hydrolyzed to acetylsalycilic acid and guaiacol
same,organs displaying the highest esterase activity,[14],the lungs and the kidneys
same,pulmonary tropism,[4]; in vivo,relative better pulmonary tropism
same,absorption,"[4]; in vivo, po",absorbed as such for the major part
same,metabolites in vivo,"[4]; in vivo, po","hydrolyzed to acetylsalycilic acid, salycilic acid and guaiacol"
same,toxicity (in words),[15]; [17],"almost negligible toxicity (both acute, subacute and chronic)"
same,toxicity (in words),[15]; listed as mr 693,very little toxic compound
same,reduction over the controls of the number of cough-strokes (in words),[5]; 500 mg/kg oral,marked reduction
same,antitussive activity compared with codeine (in words),[5],"better than that displayed, under the same conditions, by an oral dosage of 25 mg/kg of codeine"
same,antitussive activity compared with codeine (in words),[5]; [17],higher than that of codeine
same,% Inhibition of cough-strokes,[5]; 500 mg/kg os,84.3%
same,inhibition at 100 mg/kg,"[5]; Cavia porcellus, ip, read-out: % Inhibition of cough-strokes",100%
COc1ccccc1O [guaiacol],pulmonary tropism,[4]; assumed from lung concentrations and pulmonary tropism of guaiacol,marked pulmonary tropism
same,absorption,"[4]; in vivo, after oral administration of MR 693",mainly absorbed by pre-systemic route
same,distribution,[4]; after administration of MR 693,enters the lungs through the lymphatic vessels
same,route of excretion/elimination,[4]; after administration of MR 693,eliminated by respiratory route
O=C(O)c1ccccc1O [salycilic acid],concentration observed in the lungs compared with plasma and liver,[4]; after administration of MR 693,higher than those observed in the plasma and the liver
same,distribution,[4]; after administration of MR 693,enter the systemic circulation
same,route of excretion/elimination,[4]; after administration of MR 693,excreted by urinary route
